Source: patent publication US20240025884A1 (Dong-A ST Co., Ltd., priority 2022, published 2024)

Target: GCN2 (Homo sapiens (Human), UniProt Q9P2K8)
Assay: GCN2 Biochemical Assay (TR-FRET, GFP-eIF2S1 substrate phosphorylation)
Conditions: read-out: IC50 (GCN2 Inhibitory Activity)
Protocol: Experimental Example 1: GCN2 Biochemical Assay
An inhibitory effect of the inventive compound on GCN2 was identified as follows.
384-well (Greiner #784075) (or 1536-well [Greiner #782075]) plates containing 60 nl (or 20 nl for 1536-well) of compound in 100% DMSO (10 concentrations serially diluted 3.16-fold) were prepared. Two copies of plates were used—one for the GCN2 assay and a second for an artifact plate. Working reagents were prepared as follows—reaction buffer: Tris pH 7.5 20 mM, MgCl2 5 mM, DTT 1 mM, Brij-35 0.005%, EGTA 0.5 mM in water; 2× enzyme solution: GCN2 (produced in-house) 1.6 nM in reaction buffer; 2× substrate solution: GFP-eIFS1 (Thermo Fisher Scientific, PV4809) 50 nM, ATP 0.2 mM, tRNA 0.4 mg/ml in reaction buffer; p-GFP-eIF2S1 (artifact) solution: p-GFP-eIFS1 (produced by incubation of 100 nM GFP-eIF2S1 in reaction buffer with 100 uM ATP and 1 nM PERK KD enzyme for 3 hr at room temperature) 2 nM in reaction buffer; 3× stop/antibody solution: p-GFP-EIF2S1 Th-Ab (Thermo Fisher Scientific, PV4816) 6 nM, AZ13933939 3 uM, BSA 3% in reaction buffer. Reagents were loaded onto a liquid dispenser (Certus FLEX, Trajan Scientific and Medical), and 3 ul (1 ul for 1536-well) of 2× enzyme solution, followed by 3 ul (1 ul for 1536-well) of 2× substrate solution was added to the plates. When small numbers of plates were processed, the enzyme solution was added first to all plates, then the valve used for the substrate solution was primed immediately prior to use. Plates were tapped or spun 1 min/1K/RT to ensure proper mixing, followed by incubation at room temperature for 70 mins, covered/stacked in the dark. For the artifact plate, 6 ul of p-GFP-eIF2S1 solution was added prior to adding the stop/antibody solution. 3 ul (1 ul for 1536-well) of 3× stop/antibody solution was added to the plates, followed by a spin-down for 1 min/1K/RT, and incubation for 2-3 hr, sealed or covered with lids in the dark at room temperature. Plates were read on a plate reader (PHERAstar FSX, BMF Labtech) at Ex 340/Em 490/Em 520 nm.

Chain of GCN2 (Q9P2K8 whole entry): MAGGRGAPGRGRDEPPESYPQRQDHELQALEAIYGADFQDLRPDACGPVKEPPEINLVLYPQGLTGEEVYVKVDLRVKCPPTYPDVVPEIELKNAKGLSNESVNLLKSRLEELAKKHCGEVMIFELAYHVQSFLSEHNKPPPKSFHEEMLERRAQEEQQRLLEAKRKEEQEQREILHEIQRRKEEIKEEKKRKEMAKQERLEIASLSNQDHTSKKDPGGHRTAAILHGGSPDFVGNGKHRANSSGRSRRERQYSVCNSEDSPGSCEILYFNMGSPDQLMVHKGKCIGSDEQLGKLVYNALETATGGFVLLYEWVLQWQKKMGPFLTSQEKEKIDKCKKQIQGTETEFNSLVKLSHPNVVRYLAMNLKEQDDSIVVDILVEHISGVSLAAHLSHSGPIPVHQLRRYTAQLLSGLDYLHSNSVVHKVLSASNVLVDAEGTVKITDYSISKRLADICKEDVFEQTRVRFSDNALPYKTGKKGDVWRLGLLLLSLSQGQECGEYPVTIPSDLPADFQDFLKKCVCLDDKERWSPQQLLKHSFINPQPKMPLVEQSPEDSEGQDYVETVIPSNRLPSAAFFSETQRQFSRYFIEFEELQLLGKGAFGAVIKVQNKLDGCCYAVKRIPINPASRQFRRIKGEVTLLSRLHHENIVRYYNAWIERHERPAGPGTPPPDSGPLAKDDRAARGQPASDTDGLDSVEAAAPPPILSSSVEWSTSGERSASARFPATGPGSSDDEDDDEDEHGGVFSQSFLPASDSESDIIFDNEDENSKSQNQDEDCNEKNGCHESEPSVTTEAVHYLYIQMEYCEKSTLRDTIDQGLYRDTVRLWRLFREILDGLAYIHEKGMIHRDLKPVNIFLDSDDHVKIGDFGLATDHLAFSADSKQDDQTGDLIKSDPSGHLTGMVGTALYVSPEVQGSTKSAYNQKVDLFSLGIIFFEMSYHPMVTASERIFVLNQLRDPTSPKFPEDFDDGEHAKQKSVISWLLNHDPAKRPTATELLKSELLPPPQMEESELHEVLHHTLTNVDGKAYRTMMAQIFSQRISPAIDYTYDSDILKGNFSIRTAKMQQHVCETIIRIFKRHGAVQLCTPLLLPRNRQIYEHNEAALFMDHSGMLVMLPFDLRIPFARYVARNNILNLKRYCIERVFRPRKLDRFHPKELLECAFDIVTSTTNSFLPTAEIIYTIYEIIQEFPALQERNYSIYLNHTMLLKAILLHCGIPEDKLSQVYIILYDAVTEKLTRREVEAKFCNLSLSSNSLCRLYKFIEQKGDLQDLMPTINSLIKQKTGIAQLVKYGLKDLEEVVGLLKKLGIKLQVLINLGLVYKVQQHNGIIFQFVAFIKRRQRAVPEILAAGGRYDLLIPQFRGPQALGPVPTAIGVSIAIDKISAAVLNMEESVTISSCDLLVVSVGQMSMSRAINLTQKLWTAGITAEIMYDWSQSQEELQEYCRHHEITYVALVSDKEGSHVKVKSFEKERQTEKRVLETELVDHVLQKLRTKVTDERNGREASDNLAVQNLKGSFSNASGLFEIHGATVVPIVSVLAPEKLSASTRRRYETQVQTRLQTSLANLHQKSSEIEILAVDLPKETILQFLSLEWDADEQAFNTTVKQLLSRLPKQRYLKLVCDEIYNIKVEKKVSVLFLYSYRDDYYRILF

Row | IC50 [nM] | Compound
1 | 10 to 100 | Cc1cnc(Nc2cc(C)n(C)n2)nc1-c1c[nH]c2c(N(C)C(=O)CN3CC[C@H](Oc4ccncn4)C3)cccc12 [Example 21, (S)-N-(3-(2-((1,5-dimethyl-1H-pyrazol-3-yl)amino)-5-methylpyrimidin-4-yl)-1H-indol-7-yl)-N-methyl-2-(3-(pyrimidin-4-yloxy)pyrrolidin-1-yl)acetamide]
2 | 100 to 1000 | Cc1cnc(Nc2cc(C)n(C)n2)nc1-c1c[nH]c2c(NC(=O)C(C)N3CCCC3)cccc12 (centres unmarked) [Example 22, N-(3-(2-((1,5-dimethyl-1H-pyrazol-3-yl)amino)-5-methylpyrimidin-4-yl)-1H-indol-7-yl)-2-(pyrrolidin-1-yl)propanamide]
3 | 100 to 1000 | Cc1cnc(Nc2cc(C)n(C)n2)nc1-c1c[nH]c2c(NC(=O)C(C)N3CC[C@H](Oc4ccncc4)C3)cccc12 (stereo partly drawn) [Example 23, N-(3-(2-((1,5-dimethyl-1H-pyrazol-3-yl)amino)-5-methylpyrimidin-4-yl)-1H-indol-7-yl)-2-((S)-3-(pyridin-4-yloxy)pyrrolidin-1-yl)propenamide]
4 | 100 to 1000 | Cc1cnc(Nc2cc(C)n(C)n2)nc1-c1c[nH]c2c(NC(=O)C(C)(C)N3CCCC3)cccc12 [Example 24, N-(3-(2-((1,5-dimethyl-1H-pyrazol-3-yl)amino)-5-methylpyrimidin-4-yl)-1H-indol-7-yl)-2-methyl-2-(pyrrolidin-1-yl)propenamide]
5 | > 1000 | Cc1cnc(Nc2cc(C)n(C)n2)nc1-c1c[nH]c2c(NC(=O)C(C)(C)N3CC[C@H](Oc4ccncc4)C3)cccc12 [Example 25, (S)-N-(3-(2-((1,5-dimethyl-1H-pyrazol-3-yl)amino)-5-methylpyrimidin-4-yl)-1H-indol-7-yl)-2-methyl-2-(3-(pyridin-4-yloxy)pyrrolidin-1-yl)propanamide]
6 | 10 to 100 | Cc1cnc(Nc2cc(C)n(C)n2)nc1-c1c[nH]c2c(NC(=O)CN3CC(O)C3)cccc12 [Example 26, N-(3-(2-((1,5-dimethyl-1H-pyrazol-3-yl)amino)-5-methylpyrimidin-4-yl)-1H-indol-7-yl)-2-(3-hydroxyazetidin-1-yl)acetamide]
7 | 10 to 100 | Cc1cnc(Nc2cc(C)n(C)n2)nc1-c1c[nH]c2c(NC(=O)CN3CC(OCc4ccncc4)C3)cccc12 [Example 27, N-(3-(2-((1,5-dimethyl-1H-pyrazol-3-yl)amino)-5-methylpyrimidin-4-yl)-1H-indol-7-yl)-2-(3-(pyridin-4-ylmethoxy)azetidin-1-yl)acetamide]
8 | 10 to 100 | Cc1cnc(Nc2cc(C)n(C)n2)nc1-c1c[nH]c2c(NC(=O)CN3CC(Oc4ccncc4)C3)cccc12 [Example 28, N-(3-(2-((1,5-dimethyl-1H-pyrazol-3-yl)amino)-5-methylpyrimidin-4-yl)-1H-indol-7-yl)-2-(3-(pyridin-4-yloxy)azetidin-1-yl)acetamide]
9 | 10 to 100 | Cc1cnc(Nc2cc(C)n(C)n2)nc1-c1c[nH]c2c(NC(=O)CN3CC(Oc4ccncn4)C3)cccc12 [Example 29, N-(3-(2-((1,5-dimethyl-1H-pyrazol-3-yl)amino)-5-methylpyrimidin-4-yl)-1H-indol-7-yl)-2-(3-(pyrimidin-4-yloxy)azetidin-1-yl)acetamide]
10 | 100 to 1000 | Cc1cnc(Nc2cc(C)n(C)n2)nc1-c1c[nH]c2c(NC(=O)CN3CC(Oc4cccnc4)C3)cccc12 [Example 30, N-(3-(2-((1,5-dimethyl-1H-pyrazol-3-yl)amino)-5-methylpyrimidin-4-yl)-1H-indol-7-yl)-2-(3-(pyridin-3-yloxy)azetidin-1-yl)acetamide]
11 | 10 to 100 | COC(=O)C1CN(CC(=O)Nc2cccc3c(-c4nc(Nc5cc(C)n(C)n5)ncc4C)c[nH]c23)C1 [Example 31, methyl 1-(2-((3-(2-((1,5-dimethyl-1H-pyrazol-3-yl)amino)-5-methylpyrimidin-4-yl)-1H-indol-7-yl)amino)-2-oxoethyl)azetidine-3-carboxylate]
12 | 10 to 100 | Cc1cnc(Nc2cc(C)n(C)n2)nc1-c1c[nH]c2c(NC(=O)CN3CC(C(=O)O)C3)cccc12 [Example 32, 1-(2-((3-(2-((1,5-dimethyl-1H-pyrazol-3-yl)amino)-5-methylpyrimidin-4-yl)-1H-indol-7-yl)amino)-2-oxoethyl)azetidine-3-carboxylic acid]
13 | 10 to 100 | Cc1cnc(Nc2cc(C)n(C)n2)nc1-c1c[nH]c2c(NC(=O)CN3CC(Oc4cc(C(=O)NC5CC5)on4)C3)cccc12 [Example 33, N-cyclopropyl-3-((1-(2-((3-(2-((1,5-dimethyl-1H-pyrazol-3-yl)amino)-5-methylpyrimidin-4-yl)-1H-indol-7-yl)amino)-2-oxoethyl)azetidin-3-yl)oxy)isoxazole-5-carboxamide]
14 | 100 to 1000 | Cc1cnc(Nc2cc(C)n(C)n2)nc1-c1c[nH]c2c(NC(=O)CN3CC=C(c4ccncc4)CC3)cccc12 [Example 34, 2-(3,6-dihydro-[4,4′-bipyridin]-1(2H)-yl)-N-(3-(2-((1,5-dimethyl-1H-pyrazol-3-yl)amino)-5-methylpyrimidin-4-yl)-1H-indol-7-yl)acetamide]
15 | 100 to 1000 | Cc1cnc(Nc2cc(C)n(C)n2)nc1-c1c[nH]c2c(NC(=O)CN3CC=C(c4cnn(C)c4)CC3)cccc12 [Example 35, N-(3-(2-((1,5-dimethyl-1H-pyrazol-3-yl)amino)-5-methylpyrimidin-4-yl)-1H-indol-7-yl)-2-(4-(1-methyl-1H-pyrazol-4-yl)-3,6-dihydropyridin-1(2H)-yl)acetamide]
16 | 100 to 1000 | Cc1cnc(Nc2cc(C)n(C)n2)nc1-c1c[nH]c2c(NC(=O)CN3CCC(N4CCN(C)CC4)CC3)cccc12 [Example 36, N-(3-(2-((1,5-dimethyl-1H-pyrazol-3-yl)amino)-5-methylpyrimidin-4-yl)-1H-indol-7-yl)-2-(4-(4-methylpiperazin-1-yl)piperidin-1-yl)acetamide]
17 | 100 to 1000 | Cc1cnc(Nc2cc(C)n(C)n2)nc1-c1c[nH]c2c(NC(=O)CN3CCC(N4CCOCC4)CC3)cccc12 [Example 37, N-(3-(2-((1,5-dimethyl-1H-pyrazol-3-yl)amino)-5-methylpyrimidin-4-yl)-1H-indol-7-yl)-2-(4-morpholinopiperidin-1-yl)acetamide]
18 | 100 to 1000 | Cc1cnc(Nc2cc(C)n(C)n2)nc1-c1c[nH]c2c(NC(=O)CN3CCC(Oc4cccnc4)CC3)cccc12 [Example 38, N-(3-(2-((1,5-dimethyl-1H-pyrazol-3-yl)amino)-5-methylpyrimidin-4-yl)-1H-indol-7-yl)-2-(4-(pyridin-3-yloxy)piperidin-1-yl)acetamide]
19 | 100 to 1000 | Cc1cnc(Nc2cc(C)n(C)n2)nc1-c1c[nH]c2c(NC(=O)CN3CCC(Oc4ccccn4)CC3)cccc12 [Example 39, N-(3-(2-((1,5-dimethyl-1H-pyrazol-3-yl)amino)-5-methylpyrimidin-4-yl)-1H-indol-7-yl)-2-(4-(pyridin-2-yloxy)piperidin-1-yl)acetamide]
20 | 100 to 1000 | Cc1cnc(Nc2cc(C)n(C)n2)nc1-c1c[nH]c2c(NC(=O)CN3CCC(Oc4ccncc4)CC3)cccc12 [Example 40, N-(3-(2-((1,5-dimethyl-1H-pyrazol-3-yl)amino)-5-methylpyrimidin-4-yl)-1H-indol-7-yl)-2-(4-(pyridin-4-yloxy)piperidin-1-yl)acetamide]
